Data reported in PubChem BioAssay (NCI).
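96-well plates; 48 h exposure; 5 concentrations. Endpoints by linear interpolation between flanking doses. Not reached: highest tested concentration assigned. TGI is the concentration that stops growth completely.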

Columns and labels:
Assay in all cases: NCI anticancer screen, dose series, 48 h
[1] = tested on: 786-0 renal
[2] = tested on: A498 renal
[3] = tested on: A549 NSCLC
[4] = tested on: ACHN renal
[5] = tested on: CAKI-1 renal
[6] = tested on: CCRF-CEM leukemia
[7] = tested on: COLO 205 colon
[8] = tested on: DLD-1 colon
[9] = tested on: DMS 114 small cell lung
[10] = tested on: DMS 273 small cell lung
[11] = tested on: EKVX NSCLC
[12] = tested on: HCC-2998 colon
[13] = tested on: HCT-116 colon
[14] = tested on: HCT-15 colon
[15] = tested on: HL-60(TB) leukemia
[16] = tested on: HOP-18 NSCLC
[17] = tested on: HOP-62 NSCLC
[18] = tested on: HOP-92 NSCLC
[19] = tested on: HT29 colon
[20] = tested on: IGROV1 ovarian
[21] = tested on: K-562 leukemia
[22] = tested on: KM12 colon
[23] = tested on: LXFL 529 NSCLC
[24] = tested on: M14 melanoma
[25] = tested on: M19-MEL melanoma
[26] = tested on: MALME-3M melanoma
[27] = tested on: NCI-H226 lung
[28] = tested on: NCI-H23 lung
[29] = tested on: NCI-H460 lung
[30] = tested on: NCI-H522 lung
[31] = tested on: OVCAR-3 ovarian
[32] = tested on: OVCAR-4 ovarian
[33] = tested on: OVCAR-5 ovarian
[34] = tested on: OVCAR-8 ovarian
[35] = tested on: RXF 393 renal
[36] = tested on: SF-268 CNS
[37] = tested on: SF-295 CNS
[38] = tested on: SF-539 CNS
[39] = tested on: SK-MEL-2 melanoma
[40] = tested on: SK-MEL-28 melanoma
[41] = tested on: SK-OV-3 ovarian
[42] = tested on: SN12C renal
[43] = tested on: SNB-19 CNS
[44] = tested on: SNB-75 CNS
[45] = tested on: SNB-78 CNS
[46] = tested on: SR leukemia
[47] = tested on: SW-620 colon
[48] = tested on: TK-10 renal
[49] = tested on: U251 CNS
[50] = tested on: UACC-257 melanoma
[51] = tested on: UACC-62 melanoma
[52] = tested on: UO-31 renal
[53] = tested on: XF 498 CNS
[54] = tested on: KM20L2 colon
[55] = tested on: LOX IMVI melanoma
[56] = tested on: MOLT-4 leukemia
[57] = tested on: RPMI-8226 leukemia
[58] = tested on: SK-MEL-5 melanoma
[59] = tested on: BT-549 breast
[60] = tested on: DU-145 prostate
[61] = tested on: HS 578T breast
[62] = tested on: MDA-MB-435
[63] = tested on: T-47D breast

CS(=O)(=O)Oc1cccc(/C=N/N=C(\N)NO)c1
TGI [1]: 54.3 µM | TGI [2]: > 100 µM | TGI [3]: > 100 µM | TGI [4]: 66.1 µM | TGI [5]: > 100 µM | TGI [6]: > 100 µM | TGI [7]: > 100 µM | TGI [8]: > 100 µM | TGI [9]: > 100 µM | TGI [10]: 65.8 µM | TGI [11]: > 100 µM | TGI [12]: 59.1 µM | TGI [13]: > 100 µM | TGI [14]: > 100 µM | TGI [15]: 52.4 µM | TGI [16]: > 100 µM | TGI [17]: > 100 µM | TGI [18]: > 100 µM | TGI [19]: > 100 µM | TGI [20]: > 100 µM | TGI [21]: > 100 µM | TGI [22]: > 100 µM | TGI [23]: > 100 µM | TGI [24]: > 100 µM | TGI [25]: > 100 µM | TGI [26]: > 100 µM | TGI [27]: 95.6 µM | TGI [28]: > 100 µM | TGI [29]: > 100 µM | TGI [30]: > 100 µM | TGI [31]: > 100 µM | TGI [32]: > 100 µM | TGI [33]: > 100 µM | TGI [34]: > 100 µM | TGI [35]: > 100 µM | TGI [36]: > 100 µM | TGI [37]: > 100 µM | TGI [38]: > 100 µM | TGI [39]: > 100 µM | TGI [40]: > 100 µM | TGI [41]: 70.8 µM | TGI [42]: > 100 µM | TGI [43]: > 100 µM | TGI [44]: > 100 µM | TGI [45]: > 100 µM | TGI [46]: > 100 µM | TGI [47]: 63.4 µM | TGI [48]: 27.9 µM | TGI [49]: > 100 µM | TGI [50]: > 100 µM | TGI [51]: 19.5 µM | TGI [52]: > 100 µM | TGI [53]: 32.5 µM

Cc1cc2c(C)n(Cc3ccc(Cl)cc3Cl)nc2c(C#N)c1C
TGI [1]: 37.4 µM | TGI [2]: > 100 µM | TGI [3]: > 100 µM | TGI [4]: > 100 µM | TGI [5]: > 100 µM | TGI [6]: > 100 µM | TGI [7]: > 100 µM | TGI [8]: > 100 µM | TGI [9]: > 100 µM | TGI [10]: > 100 µM | TGI [11]: > 100 µM | TGI [12]: > 100 µM | TGI [13]: > 100 µM | TGI [14]: > 100 µM | TGI [15]: > 100 µM | TGI [16]: > 91.6 µM | TGI [17]: 49.7 µM | TGI [18]: 36.9 µM | TGI [19]: > 100 µM | TGI [20]: > 100 µM | TGI [21]: > 100 µM | TGI [22]: > 100 µM | TGI [54]: > 56.9 µM | TGI [55]: > 100 µM | TGI [23]: > 100 µM | TGI [24]: > 100 µM | TGI [25]: > 100 µM | TGI [26]: > 81.6 µM | TGI [56]: > 100 µM | TGI [27]: > 56.2 µM | TGI [28]: > 100 µM | TGI [29]: > 100 µM | TGI [30]: > 100 µM | TGI [31]: > 100 µM | TGI [32]: > 100 µM | TGI [33]: > 56.2 µM | TGI [34]: > 100 µM | TGI [57]: > 100 µM | TGI [35]: 57.3 µM | TGI [36]: > 100 µM | TGI [37]: 60.9 µM | TGI [38]: > 62.5 µM | TGI [39]: > 100 µM | TGI [40]: > 100 µM | TGI [58]: > 100 µM | TGI [41]: 47.4 µM | TGI [42]: > 100 µM | TGI [43]: 45.7 µM | TGI [44]: 62 µM | TGI [45]: > 76.4 µM | TGI [46]: > 100 µM | TGI [47]: > 100 µM | TGI [48]: 68.4 µM | TGI [49]: > 61.9 µM | TGI [50]: > 100 µM | TGI [51]: > 100 µM | TGI [52]: > 95.3 µM | TGI [53]: 23 µM

COc1ccc(NC(=O)C/C(C)=N\N=C(N)N)c([N+](=O)[O-])c1
TGI [1]: > 100 µM | TGI [2]: > 100 µM | TGI [3]: > 100 µM | TGI [4]: > 100 µM | TGI [5]: > 100 µM | TGI [6]: > 100 µM | TGI [7]: > 100 µM | TGI [8]: > 100 µM | TGI [9]: > 100 µM | TGI [10]: > 100 µM | TGI [11]: > 100 µM | TGI [12]: > 100 µM | TGI [13]: > 100 µM | TGI [14]: > 100 µM | TGI [15]: > 100 µM | TGI [16]: > 100 µM | TGI [17]: > 100 µM | TGI [18]: > 100 µM | TGI [19]: > 100 µM | TGI [20]: > 100 µM | TGI [21]: > 100 µM | TGI [22]: > 100 µM | TGI [54]: > 100 µM | TGI [55]: > 100 µM | TGI [23]: > 100 µM | TGI [24]: > 100 µM | TGI [25]: > 100 µM | TGI [26]: > 100 µM | TGI [56]: > 100 µM | TGI [27]: > 100 µM | TGI [28]: > 100 µM | TGI [29]: > 100 µM | TGI [30]: > 100 µM | TGI [31]: > 100 µM | TGI [32]: > 100 µM | TGI [33]: > 100 µM | TGI [34]: > 100 µM | TGI [57]: > 100 µM | TGI [35]: > 100 µM | TGI [36]: > 100 µM | TGI [37]: > 100 µM | TGI [38]: > 100 µM | TGI [39]: > 100 µM | TGI [40]: > 100 µM | TGI [58]: > 100 µM | TGI [41]: > 100 µM | TGI [42]: > 100 µM | TGI [43]: > 100 µM | TGI [44]: > 100 µM | TGI [45]: > 100 µM | TGI [46]: 48.8 µM | TGI [48]: > 100 µM | TGI [49]: > 100 µM | TGI [50]: > 100 µM | TGI [51]: > 100 µM | TGI [52]: > 100 µM | TGI [53]: > 100 µM

C=C1CC2OC2(C(=O)O[C@H]2CCC3[C@@H]4CCC5=CC(=O)CC[C@]5(C)C4CC[C@@]32C)C1=O (stereo partly specified)
TGI [1]: 4.83 µM | TGI [2]: 30.6 µM | TGI [3]: 43 µM | TGI [4]: 16.2 µM | TGI [59]: 41.9 µM | TGI [5]: 25 µM | TGI [6]: 12.7 µM | TGI [7]: 15.5 µM | TGI [8]: 16.5 µM | TGI [9]: 10.4 µM | TGI [10]: 9.15 µM | TGI [60]: 32.9 µM | TGI [11]: 48 µM | TGI [12]: 74.5 µM | TGI [13]: 13.8 µM | TGI [14]: 23.1 µM | TGI [15]: 3.93 µM | TGI [16]: 12.7 µM | TGI [17]: 44.4 µM | TGI [18]: 23.5 µM | TGI [61]: 45.1 µM | TGI [19]: 24.3 µM | TGI [20]: 25.6 µM | TGI [21]: 7.03 µM | TGI [22]: 32 µM | TGI [54]: 16.2 µM | TGI [55]: 21.1 µM | TGI [23]: 6.08 µM | TGI [24]: 16.6 µM | TGI [25]: 31.7 µM | TGI [26]: 16.5 µM | TGI [62]: 48.7 µM | TGI [56]: 5.96 µM | TGI [27]: 55.5 µM | TGI [28]: 27.3 µM | TGI [29]: 28.9 µM | TGI [30]: 8 µM | TGI [31]: 21.8 µM | TGI [32]: 18.4 µM | TGI [33]: 38.4 µM | TGI [34]: 45.1 µM | TGI [57]: 5.79 µM | TGI [35]: 10.9 µM | TGI [36]: 18.2 µM | TGI [37]: 42.8 µM | TGI [38]: 18.1 µM | TGI [39]: 15.1 µM | TGI [40]: 17.8 µM | TGI [58]: 27.6 µM | TGI [41]: 38.8 µM | TGI [42]: 13.9 µM | TGI [43]: 36.3 µM | TGI [44]: 33.9 µM | TGI [45]: 19.5 µM | TGI [46]: 7.65 µM | TGI [47]: 11.8 µM | TGI [63]: 14.2 µM | TGI [48]: 15.1 µM | TGI [49]: 21.2 µM | TGI [50]: 18.3 µM | TGI [51]: 28.7 µM | TGI [52]: 15.4 µM | TGI [53]: 9.92 µM
